Patent US20040009899A1, “Treating dominant disorders” (priority 2002, published 2004)

Columns and labels:
[1] = tested on: mice; experiment: Toxicity observation (behavior, weight, motor function) during intraventricular PNA treatment; assay type: in vivo; details: 1.0 μL (25 μg/μL) into the ventricle every other day
Description: Animal treatment and tissue preparation: Aliquots of 1.0 μL (25 μg/μL) of a PNA oligomer specific for the expanded human HD allele (HDs) or a scrambled control PNA (HDscr) were administered into the ventricle every other day by injection via the cannula.

[2] = tested on: human HD transgene; experiment: Western immunoblot of human HD transgene (htt) expression in PNA-treated R6/1 mice; assay type: in vivo, mouse
Description: Cannulation and microsurgery—method 1: B6CBA, R6/1, and R6/2 mice were obtained from The Jackson Laboratory (Bar Harbor, Me.). Mice were anesthetized via intraperitoneal (i.p.) injection with 100 mg/kg of a ketamine/xylazine solution containing 8 mg/mL ketamine and 1 mg/mL xylazine in 0.9% saline. Once anesthetized, each mouse was cannulated. Each anesthetized mouse was placed in a Stoelting Stereotaxic Frame with a mouse adapter (Stoelting Instruments, Wood Dale, Ill.). An incision was made using a scalpel, and the skin and tissue were pulled back with swabs to reveal the skull. The cannulation site was positioned for optimum access to the ventricle, at coordinates AP −0.2 mm, Horiz −1 mm from bregma. A cannula entry port and two bone screw ports were opened in the skull using a Dremel Flex Shaft Drill (Stoelting Instruments) with a 2.1 mm burr for the guide cannula port and a 0.7 mm burr for the bone screws (Fine Science Tools, Foster City, Calif.). Two 4.0 mm long bone screws (0.85 diameter) were placed far enough into the bone screw ports to fasten securely. After placing the bone screws, a cannula system (Plastics One, Roanoke, Va.) including a guide cannula (C315Gs-5/Spc), a dummy cannula (C313Dcs-5Spc), an injection cannula (C3151S-5.2/Spc), and a connector assembly (C313C) was placed in the guide cannula port. The guide cannula was positioned 1.5 mm into the brain using a stereotaxic needle and was secured to the bone screws and incision with dental cement. Once the dental cement hardened, the stereotaxic needle was removed and both the injection cannula and dummy cannula were placed within the guide cannula and secured to the connector assembly. Proper cannula placement was confirmed in several mice by injecting bromophenol blue dye into the ventricular space and noting that only the ventricle was stained. […]
Following the treatment period, mice were anesthetized with ether and sacrificed by cervical dislocation. […] Following centrifugation, the supernatants were removed and protein concentrations were quantified by Bradford assays using a BSA standard. […]

[3] = tested on: R6/2 mice; experiment: Survival of R6/2 transgenic mice treated with PNA; assay type: in vivo, mouse
Description: (§1) Cannulation and microsurgery—Method 2: Pump cannulas were prepared 48 hours before surgery. For adaptation to mice, Alzet pump cannulas were ground to a length of 2 mm. The cannulas then were sterilized by gas ozonation. Mice were anesthetized via i.p. injection with 100 mg/kg of a ketamine/xylazine solution containing 8 mg/mL ketamine and 1 mg/mL xylazine in 0.9% saline. Once anesthetized, each mouse was cannulated. Each anesthetized mouse was placed in a Stoelting Stereotaxic Frame with a mouse adapter (Stoelting Instruments). An incision was made using a scalpel, and the skin and tissue were pulled back with swabs to reveal the skull. The cannulation site was positioned for optimum access to the ventricle, at coordinates AP −0.2 mm, Horiz −1 mm from bregma. A cannula entry port and two bone screw ports were opened in the skull using a Dremel Flex Shaft Drill (Stoelting Instruments) with a 2.1 mm burr. The cannula was lowered into place and affixed using Loctite 454 (Loctite Corp., Avon, Ohio). An Alzet Mini-Osmotic Pump was inserted into a pouch beneath the skin and attached to the cannula with silastic tubing. The wound was closed using wound clips and the animal was allowed to recuperate.
Delivery of PNA oligomer solutions: All handling of tubing and cannulas was done under sterile conditions. PNA solutions at the correct concentrations were diluted in artificial cerebrospinal fluid (ACSF; 147 mM NaCl, 4.02 mM KCl, 1.2 mM CaCl2, pH 7.5) and then filtered for delivery. As a control, ACSF containing no PNA was delivered.
Experiments were conducted to determine whether PNA-mediated inhibition of mutant huntingtin expression increased survival and/or reversed features of pathophysiology. R6/2 and non-transgenic mice were divided into two groups of three to five mice each, and treated with either HDs or ACSF for approximately ten weeks, beginning at five to six weeks of age. Treated animals received a dose of 0.15 mg/kg of the HDs PNA oligomer, administered by continuous infusion through an Alzet pump. All ACSF-treated transgenic mice died by three months of age.
In other experiments, R6/2 mice were divided into five groups (designated groups 1-5) containing eight to ten animals each. Groups 1-4 received either saline (group 1) or a specific amount of HDs (groups 2-4). Group 5 included untreated R6/2 mice. A sixth group included untreated non-transgenic B6CBA control mice. At 8 weeks of age, each mouse was weighed to establish a weight stability baseline. Baselines for clasping behavior, motility, and motor skill were established at 9 weeks of age using the methods described in Example 1.
At 9 weeks of age, the mice in each group received saline (group 1) or HDs at 2.0 mg/kg, 5.0 mg/kg, or 20.0 mg/kg (groups 2, 3, and 4, respectively) by i.p. injection every 48 hours. The injections continued through 13 weeks of age (i.e., treatment for […]). Weight stability, clasping behavior, motility, and motor skill were assessed weekly during the treatment period. At the time of death or after the treatment period, the brain of each mouse was removed using standard methods. The brains were divided into hemispheres, and one hemisphere of each brain was saved for protein and mRNA analysis. The remaining hemispheres were fixed directly in 10% formalin for 5-7 days. After fixing, the brain hemispheres were weighed individually and processed for sectioning and pathophysiology.

[4] = tested on: non-transgenic mice; details: mouse, in vivo, 0.15 mg/kg
Description: as §1
Delivery of PNA oligomer solutions: All handling of tubing and cannulas was done under sterile conditions. […]

Substance: HDs: sense PNA oligomer, 14 residues, 5′-GGACTGCCGTGCCG-3′ (SEQ ID NO:3), specific for the expanded human HD allele (all peptide nucleic acid (PNA))
- toxicity as measured by weight or motor function relative to untreated animals [1]: no effects of toxicity
- effectiveness at inhibiting transgene expression relative to random, scrambled PNA ([2]; 25 μg into the ventricle every other day for 4 or 6 days): significantly more effective
- effect on expression of the human transgene in the liver ([2]; liver, direct injection into the brain, 4 or 6 days): little effect
- inhibition of human HD transgene expression ([2]; striatum, 1 μL of 25 μg/μL into the ventricle every other day for 4 or 6 days, compared to untreated R6/1 controls): dramatic inhibition
- survival of longest-surviving treated animal (one of three) ([3]; 0.15 mg/kg continuous infusion by Alzet pump): still alive and healthy at six months of age
- survival ([3]; 0.15 mg/kg continuous infusion by Alzet pump, about ten weeks from five to six weeks of age, ACSF-treated all died by three months): improved survival
- mice alive at 13 weeks of age ([3]; 2.0 mg/kg i.p. every 48 hours from 9 weeks of age): None
- mice alive at 13 weeks of age ([3]; 5.0 mg/kg i.p. every 48 hours from 9 weeks of age): 50%
- mice alive at 13 weeks of age ([3]; 20.0 mg/kg i.p. every 48 hours from 9 weeks of age): 20%
- effect of treatment on non-transgenic animals [4]: appeared unaffected
